From patent US11793845B2, “Composition for ameliorating peripheral sensory neuropathy” (KINKI UNIVERSITY, priority 2016, dated 2023)

Columns and labels:
Format in all cases: in vivo
[1] = test system: Peripheral Sensory Neuropathy Induced by Vincristine in Mice; test: cold plate test, vincristine-induced peripheral sensory neuropathy; conditions: duloxetine 30 mg/kg daily
Protocol: (§1) The effect of the Lentinus edodes mycelium extract on the paresthesia to cold stimulation was tested by performing the cold plate test. The mice in the three groups in the above (1) were put on a cold plate set to 10° C. and a response time for avoidance (a latency) was measured. The shorter latency means that the mouse avoids the cold stimulation of the cold plate more.
In the present test, the mice were divided into three groups by a difference in test objects. As in Example 1, male Balb/c mice of 6 to 7 weeks old were used. The mice were divided into a total of three groups, a control group, a vincristine
administration group, and a vincristine and Lentinus edodes mycelium extract administration group (vincristine+Lentinus edodes mycelium extract administration group).
Vincristine was administered to each mouse once a day at a dose of 0.2 mg/kg. Further, the Lentinus edodes mycelium extract was administered to each mouse once a day at a dose of 2 g/kg.
Evaluation was performed in the same manner as in the test with oxaliplatin in Example 1. Referring to FIG. 6, the horizontal axis indicates the elapsed time after administration (days) and the vertical axis indicates the avoidance response time (seconds). Open circles with a solid line represent the control group. Filled circles with a solid line represent the group in which only vincristine was administered. Open squares with a dash line represent the group in which vincristine and the Lentinus edodes mycelium extract were administered at the same time (vincristine+Lentinus edodes mycelium extract administration group). When the difference with the control group was determined to be significant using a significance level of 5%, the data were marked by “*”.
In the present test, the mice were divided into six groups by a difference in test objects. As in Example 1, male Balb/c mice of 6 to 7 weeks old were used. […]

[2] = test system: Peripheral Sensory Neuropathy Induced by Paclitaxel in Mice; test: cold plate test, paclitaxel-induced peripheral sensory neuropathy; conditions: duloxetine 30 mg/kg daily
Protocol: as §1
In the present test, the mice were divided into four groups by a difference in test objects. As in Example 1, male Balb/c mice of 6 to 7 weeks old were used. The mice were divided into a total of four groups, a control group, a paclitaxel administration group, and two different paclitaxel and Lentinus edodes mycelium extract administration groups (paclitaxel+Lentinus edodes mycelium extract administration groups). […] Further, a group in which the Lentinus edodes mycelium extract was administered to each mouse once a day at a dose of 1 g/kg (hereinafter referred to as “1 g/kg administration group”) and a group in which the Lentinus edodes mycelium extract was administered to each mouse once a day at a dose of 2 g/kg (hereinafter referred to as “2 g/kg administration group”) were prepared.
Evaluation was performed in the same manner as in the test with oxaliplatin. Referring to FIG. 4, the horizontal axis indicates the elapsed time after administration (days) and the vertical axis indicates the avoidance response time (seconds). Open circles with a solid line represent the control group. Filled circles with a solid line represent the group in which only paclitaxel was administered. Open squares with a dash line and filled squares with a dash line represent the groups in which paclitaxel and the Lentinus edodes mycelium extract were administered at the same time (paclitaxel+Lentinus edodes mycelium extract administration groups). […] When the difference with the control group was determined to be significant using a significance level of 5%, the data were marked by “*”. […]

[3] = test system: Peripheral Sensory Neuropathy Induced by Oxaliplatin in Mice; test: von Frey test, oxaliplatin-induced peripheral sensory neuropathy
Protocol: Male Balb/c mice of 6 to 7 weeks old were used. The mice were divided into three groups: a control group, an oxaliplatin administration group, and an oxaliplatin and Lentinus edodes mycelium extract administration group (oxaliplatin+Lentinus edodes mycelium extract administration group). Oxaliplatin was administered to each mouse once a day at a dose of 6 mg/kg. Further, the Lentinus edodes mycelium extract was administered to each mouse once a day at a dose of 2 g/kg.
Further, the number of times of administration was set to once a week (on Day 0, Day 7, and Day 14) for oxaliplatin and daily (from Day 0 to Day 15) for the Lentinus edodes mycelium extract in both the von Frey test and the cold plate test below.
The higher number of times of avoidance means that the mouse avoids the stimulation by the filament more. […] When the difference with the control group was determined to be significant using a significance level of 5%, the data were marked by “*”.

SMILES: CNCC[C@H](Oc1cccc2ccccc12)c1cccs1 [duloxetine]
- latency compared with vincristine administration group, cold plate test ([1]; 3-day delayed after vincristine): almost the same as that in the vincristine administration group
- latency, cold plate test ([1]; 6-day delayed after vincristine): same tendency as that in the duloxetine 3-day delayed administration group
- latency compared with paclitaxel administration group, cold plate test ([2]; 3-day delayed after paclitaxel): almost the same as that in the paclitaxel administration group
- latency, cold plate test ([2]; 6-day delayed after paclitaxel): same tendency as that in the duloxetine 3-day delayed administration group
- avoidance score compared with oxaliplatin administration group, von Frey test ([3]; duloxetine 30 mg/kg daily Day 3 to Day 23 (3-day delayed) after oxaliplatin 6 mg/kg weekly): almost the same score as that in the oxaliplatin administration group
- avoidance score, von Frey test ([3]; duloxetine 30 mg/kg daily Day 6 to Day 23 (6-day delayed) after oxaliplatin 6 mg/kg weekly): same tendency as that in the duloxetine 3-day delayed administration group
